The source of these data is patent US9801850B2, “Antibacterial agent” (OSAKA UNIVERSITY, priority 2009, dated 2017).

Converted amounts (≈) assume the structure as drawn. Some results are limits rather than exact numbers.

In test [1] the test system is Escherichia coli MG1655 (wild type). The test can be described thus: MIC, influence of multidrug efflux pump (Example 5). The format is cell-based. The protocol:
(§1) Using the EGCG derivatives, the minimum inhibitory concentration (MIC) was measured in the same manner as described in Section (2) of Example 2, except that Escherichia coli MG1655 (hereinafter referred to as a wild-type strain) and gene deletion strains of Escherichia coli MG1655 were used as the bacteria. The gene deletion strains were: strains obtained by deleting the efflux pump genes, namely, acrB, acrD, and acrEF, respectively, in Escherichia coli MG1655 (ΔacrD, ΔacrEF, and ΔacrB); and a strain obtained by deleting the outer membrane protein tolC gene that couples to proteins encoded by the efflux pump genes (ΔtolC).
(§2) As Comparative Example 5, the minimum inhibitory concentration (MIC) was measured in the same manner as in Example 5, except that EGCG was used instead of the EGCG derivative.

Test [2] relates to Escherichia coli MG1655 ΔacrB. The test is described as above. The format is cell-based. The protocol:
as §1, §2

In test [3] the test system is Escherichia coli MG1655 ΔacrD. Described as above. Type of test: cell-based. As to the method: as §1, §2
In test [4] the test system is Escherichia coli MG1655 ΔacrEF. Described as above. The format is cell-based. The protocol:
as §1, §2

Test [5] deals with Escherichia coli MG1655 ΔtolC. Described as above. The format is cell-based. As to the method:
as §1, §2

Test [6] deals with Methicillin-susceptible Staphylococcus aureus (MSSA) NCTC8325. The test can be described thus: MIC, broth microdilution (Example 1). The format is cell-based. Conditions: MH-broth, 37° C., 18 hours. As to the method: (§3) Methicillin-susceptible Staphylococcus aureus (MSSA) NCTC8325 and methicillin-resistant Staphylococcus aureus (MRSA) ATCC43300 were used as bacteria. The bacteria of each type were cultured using Mueller-Hinton Broth (MH-broth, Difco) as a medium. Then, the minimum inhibitory concentration (MIC) of each of the EGCG derivatives was measured by a broth microdilution method in accordance with the Clinical and Laboratory Standards Institute (CLSI) guidelines (hereinafter the same).
(§4) First, each of the EGCG derivatives was dissolved in 100% dimethyl sulfoxide (DMSO, Wako Pure Chemical Industries, Ltd.) so that the concentration thereof became 5120 μg/ml. The resultant solution was diluted with DMSO or sterile distilled water so as to prepare two-fold dilution series of antibacterial agent solutions. […] Each of these antibacterial agent solutions was dispensed to wells of a 96-well plate. The concentration of the EGCG derivative in the antibacterial agent solution dispensed to the wells was set to be 10 times as high as the final concentration. On the other hand, the bacteria were cultured in the MH-broth at 37° C. overnight, and the thus-obtained pre-culture solution was diluted with a new MH-broth so that the concentration thereof in the MH-broth became 10^−4 (10^4-fold dilution), thus preparing a bacterial culture solution of about 1×10^5 CFU/ml (CFU: Colony Forming Unit, the number of viable cells). The bacterial culture solution was further added to each well, and the mixture was cultured at 37° C. for 18 hours. The ratio (volume ratio) between the antibacterial agent solution and the bacterial culture solution added to each well was set to 1:9 (the antibacterial agent solution:the bacterial culture solution), and the volume of the mixture of them per well was set to 100 μl in total. The final concentration of the EGCG derivative in the mixture was set to 8 μg/ml to 512 μg/ml, and the number of viable cells in the mixture was set to about 1×10^5 CFU/ml. Then, after the completion of the culture, the MIC was determined. Also, the turbidity (OD600 nm) was measured using a plate reader so as to identify minor differences.
(§5) As Comparative Example 1, the same procedures as in Example 1 were performed, except that unsubstituted EGCG was used as an antibacterial agent instead of the EGCG derivatives of Example 1. Furthermore, as a control, the same procedures as in Example 1 were performed, except that sterile distilled water, 100% DMSO, or 50% DMSO was used instead of the antibacterial agent solutions containing the EGCG derivatives.
In general terms: Dilution methods test growth across graded concentrations, often in twofold steps.

Test [7] has as its system methicillin-resistant Staphylococcus aureus (MRSA) ATCC43300. The experiment in a line: MIC, broth microdilution (Example 1). Type of test: cell-based. Conditions: for MIC: MRSA ATCC43300, MH-broth, 37° C., 18 hours. As to the method:
as §3, §4, §5

The test system of another test is MRSA ATCC43300. The experiment in a line: MIC with addition of PG, LPS or D-Ala-D-Ala (Example 3). The format is cell-based, Staphylococcus aureus. Conditions: MRSA (ATCC43300). The protocol: (§6) Regarding EGCG-C16, whether or not the antibacterial action thereof against MSSA and MRSA is inhibited by the addition of: peptidoglycan (PG) or D-Ala-D-Ala, which are each a cell wall component; or lipopolysaccharide (LPS), which is an outer membrane component, was examined. The MIC measurement was carried out in the manner described in Section (2) of Example 2.
(§7) In Example 3, EGCG-C16 prepared in Example 1 was used as an antibacterial agent. In Comparative Example 3, unsubstituted EGCG was used as an antibacterial agent. […] Antibacterial agent solutions of EGCG-C16 and EGCG were prepared in the same manner as described in Section (2) of Example 1. Antibacterial agent solutions of the antibacterial agents other than EGCG-C16 and EGCG were prepared by dissolving them in PBS.
(§8) As additives, PG (Peptidoglycan Staphylococcus aureus, SIGMA-ALDRICH), D-Ala-D-Ala (SIGMA-ALDRICH), and LPS (Lipopolysaccharide Salmonella, SIGMA-ALDRICH) were provided. Each of the additives was dissolved in PBS, and the resultant solution was used as an additive solution.
(§9) Dilution series of the antibacterial agent solutions were prepared. Each of them was dispensed to a 96-well plate. Further, the additive solution was added thereto and mixed. After that, a bacterial culture solution of MRSA ATCC43300 or MSSA ATCC25923 was added thereto and cultured at 37° C. for 18 hours. In the mixture of the antibacterial agent solution, the additive solution, and the bacterial culture solution, the final concentrations of PG, D-Ala-D-Ala, and LPS were each set to 30 μg/ml. Unless otherwise stated, the minimum inhibitory concentration (MIC) was calculated in the same manner as described in Section (2) of Example 2.

The next test concerns MSSA ATCC25923. The description is as above. Conditions: MSSA (ATCC25923). Type of test: cell-based, Staphylococcus aureus. The protocol:
as §6, §7, §8, §9

Setting [8] is: +LPS (30 μg/mL), upper part of Table 9.
Where [9] appears, read: +PG (30 μg/mL), upper part of Table 9 (PG/LPS series).
Where [10] appears, read: MH-broth free of additives, upper part of Table 9 (PG/LPS series).
The mark [11] stands for this setting: +D-Ala-D-Ala (30 μg/mL), lower part of Table 9.
[12] abbreviates: +PG (30 μg/mL), lower part of Table 9 (PG/D-Ala-D-Ala series).
The mark [13] stands for this setting: MH-broth free of additives, lower part of Table 9 (PG/D-Ala-D-Ala series).

Usually MIC stands for the smallest concentration in the dilution series that meets the test's criterion for growth inhibition. Low readings indicate a more susceptible organism, high ones a less susceptible organism. In the case of EGCG-palmitoleate [EGCG-C16E], the minimal inhibitory concentration (MIC) is more than 128 µg/mL in test [1]; 64 µg/mL in test [2]; more than 128 µg/mL in test [3]; more than 128 µg/mL in [4]; 64 µg/mL in test [5].
Consider EGCG-dioctanoate [EGCG-C8×2], for which the minimal inhibitory concentration (MIC) was more than 128 µg/mL in test [1]; 64 µg/mL in test [2]; more than 128 µg/mL in [3]; more than 128 µg/mL in [4]; 32 µg/mL in test [5].
As for `O=C(O[C@@H]1Cc2c(O)cc(O)cc2O[C@@H]1c1cc(O)c(O)c(O)c1)c1cc(O)c(O)c(O)c1` [EGCG, Epigallocatechin gallate, reference compound], the MIC in test [6] is 128 µg/mL (≈ 279 µM); in test [7], 256 µg/mL (≈ 558 µM); in the test with MRSA ATCC43300 (setting [8]), more than 64 µg/mL; with MRSA ATCC43300 (setting [9]), more than 64 µg/mL; in the test on MRSA ATCC43300 (setting [10]), more than 64 µg/mL; against MSSA ATCC25923 (setting [8]), more than 64 µg/mL. Besides, the MIC against MSSA ATCC25923 (setting [9]) is more than 64 µg/mL; against MSSA ATCC25923 (setting [10]), more than 64 µg/mL; in [1], more than 256 µg/mL; in [2], 128 µg/mL (≈ 279 µM); in [3], more than 256 µg/mL; in [4] it was more than 256 µg/mL. In test [5], the MIC was 128 µg/mL (≈ 279 µM).
For EGCG-stearate [EGCG-C18], the figures for the MIC in [6] and in test [7] were 16 µg/mL and 32 µg/mL, respectively.
Consider EGCG-α-linoleate [EGCG-C18TE], for which the minimum inhibitory concentration (MIC) in test [1] is more than 128 µg/mL; in [2], 64 µg/mL; in test [3] it was more than 128 µg/mL; in [4] it was more than 128 µg/mL; in test [5], 64 µg/mL.
As for EGCG-palmitate [EGCG-C16], the minimal inhibitory concentration (MIC) was determined as 8 µg/mL in test [6]; 8 µg/mL in test [7]; 8 µg/mL in the test with MRSA ATCC43300 (setting [11]); 16 µg/mL against MRSA ATCC43300 (setting [8]); 16 µg/mL in the test on MRSA ATCC43300 (setting [12]); 32 µg/mL against MRSA ATCC43300 (setting [9]). Also, the MIC in the test on MRSA ATCC43300 (setting [13]) came to 8 µg/mL; against MRSA ATCC43300 (setting [10]), 16 µg/mL; with MSSA ATCC25923 (setting [11]), 16 µg/mL; against MSSA ATCC25923 (setting [8]), 16 µg/mL; against MSSA ATCC25923 (setting [12]), 32 µg/mL; in the test with MSSA ATCC25923 (setting [9]), 32 µg/mL. Further, the minimum inhibitory concentration (MIC) with MSSA ATCC25923 (setting [13]) was 16 µg/mL; in the test on MSSA ATCC25923 (setting [10]) it was 16 µg/mL; in test [1] it was more than 128 µg/mL; in [2] it was 64 µg/mL; in test [3], more than 128 µg/mL; in test [4], more than 128 µg/mL. The molecule also showed an MIC in [5] of 64 µg/mL. Moreover, the “inhibition of propagation (MIC, turbidity OD600 nm)” value in [7] (MRSA, FIG. 1 and Table 3) was “remarkable propagation-inhibiting effect”.
